The source of these data is patent US7332615B2, “Hydrophilic analogs of 4,8-dihydrobenzodithiophene-4,8-diones as anticancer agents” (Industrial Technology Research Institute, priority 2004, dated 2008).

Structures are written as SMILES. Where a name gives a salt, the structure may show the parent alone. Read-outs that look alike come from different tables or passages of the source. Where only a bound is given, the exact number is not on record here.

One data set can be described thus: Water solubility. In kind it is physicochemical. The settings on record: in H2O; for solubility: water.
Data set [1] concerns epidermoid carcinoma of the nasopharynx (KB). Briefly: Cytotoxicity Assays Method C, KB. In kind it is cell-based. The conditions noted are these: KB, 50% reduction in cell number after 72 hr of incubation, read-out: IC50 KB.
For the next data set, the system named is lung carcinoma (A-549). Briefly: Cytotoxicity Assays Method C, A-549. Format: cell-based. The conditions noted are these: A549, 50% reduction in cell number after 72 hr of incubation, read-out: IC50 A549.
Data set [2] relates to p-gp-expressing epidermoid carcinoma of the nasopharynx (KB-VIN). Briefly: Cytotoxicity Assays Method C, KB-VIN. Format: cell-based. The conditions noted are these: 50% reduction in cell number after 72 hr of incubation. The text has this:
Cytotoxicity Assays Method C (KB, KB-VIN, AS49, HCT-8, PC-3) [K. H. Lee et. al. Planta Med. 54, 308-312 (1998), Monk A et. al. J. Natl. Cancer Inst. 83, 757-766 (1991).] The cell lines included epidermoid caninoma of the nasopharynx (KB), p-gp-expressing epidermoid caninoma of the nasopharynx (KB-VIN), lung carcinoma (A-549), ileocecal carinoma (HCT-8) and prostate cancer (PC-3) cell lines.

The test system of data set [3] is ileocecal carcinoma (HCT-8). Briefly: Cytotoxicity Assays Method C, HCT-8. Format: cell-based. The settings on record: Homo sapiens, HCT-8, 72 h, HCT-8, 50% reduction in cell number after 72 hr of incubation; read-out: IC50 HCT-8.
The next data set relates to prostate cancer (PC-3). Briefly: Cytotoxicity Assays Method C, PC-3. Format: cell-based. The settings on record: PC-3, 50% reduction in cell number after 72 hr of incubation, read-out: IC50 PC-3.

Consider `CC(O)c1cc2c(s1)C(=O)c1sccc1C2=O` (stereo not drawn) [Compound 1b, reference compound], for which the “Solubility (water solubility)” value in the data set “Water solubility” is 9.6 × 10^−3 mg/1 mL H2O.

For the molecule `COc1cccc2c1C(=O)c1c(O)c3c(c(O)c1C2=O)C[C@@](O)(C(=O)CO)C[C@@H]3O[C@H]1C[C@H](N)[C@H](O)[C@H](C)O1` [Doxorubincin, reference compound], the IC50 in data set [1] worked out at 0.18 µM; in the data set with lung carcinoma (A-549), 0.18 µM; in data set [2] it was 4.97 µM.

For `O=C([O-])CCC(=O)OCc1cc2c(s1)C(=O)c1sccc1C2=O.[Na+]` [IIa-1-Na, Sodium mono-[1-(4,8-dioxo-4,8-dihydrobenzo[1,2-b:5,4-b′]dithiophen-2-yl)-methyl]succinate], the solubility in “Water solubility” was no less than 10000 µg/mL. Also, the half-maximal inhibitory concentration (IC50) amounted to 2.09 µM in data set [1] (72 h); 3.79 µM in the data set on lung carcinoma (A-549) (Homo sapiens, A549, 72 h); 3.25 µM in data set [3]; 3.79 µM in data set [2]; 1.22 µM with prostate cancer (PC-3) (72 h).

`O=C(O)COCc1cc2c(s1)C(=O)c1sccc1C2=O` [IVa, 4,8-dioxo-4,8-dihydroxybenzo[1,2-b:5,4-b′]-dithiophen-2-yl-methoxy acetic acid]: the 50% inhibitory concentration (IC50) was 3.61 µM in data set [1] (72 h); 2.46 µM in the data set with lung carcinoma (A-549) (Homo sapiens, A549, 72 h); 2.07 µM in data set [3]; 2.46 µM in data set [2] (Homo sapiens, KBVIN, 72 h); 1.05 µM in the data set on prostate cancer (PC-3) (72 h).

As to `O=C([O-])COCc1cc2c(s1)C(=O)c1sccc1C2=O.[Na+]` [IVa-Na, Sodium 4,8-dioxo-4,8-dihydroxybenzo[1,2-b:5,4-b′]-dithiophen-2-yl-methoxy acetate], the solubility in the data set “Water solubility” is no less than 9600 µg/mL.

In “Water solubility”, `CC(OCC(=O)[O-])c1cc2c(s1)C(=O)c1sccc1C2=O.[Na+]` (stereo not drawn) [IVb-Na, Sodium 1-(4,8-dioxo-4,8-dihydroxybenzo[1,2-b:5,4b′]-dithiophen-2-yl-ethoxy)-acetate] gave a solubility of no less than 3200 µg/mL.

In the case of `CC[C@]1(O)C[C@H]2CN(CCc3c([nH]c4ccccc34)[C@@](C(=O)OC)(c3cc4c(cc3OC)N(C=O)[C@H]3[C@@](O)(C(=O)OC)[C@H](OC(C)=O)[C@]5(CC)C=CCN6CC[C@]43[C@@H]65)C2)C1` [VCR, reference compound], the 50% inhibitory concentration (IC50) in data set [1] was found to be 0.01 µM; with lung carcinoma (A-549) it was 0.04 µM; in data set [2], 5.33 µM.

Take `COc1cc([C@@H]2c3cc4c(cc3[C@@H](O[C@@H]3O[C@@H]5CO[C@@H](C)O[C@H]5[C@H](O)[C@H]3O)[C@H]3COC(=O)[C@H]23)OCO4)cc(OC)c1O` [VP-16, reference compound]: the IC50 in data set [1] was 4.76 µM; in the data set on lung carcinoma (A-549), 1.36 µM; in data set [2], greater than 10 µM.

Turning to `O=C(O)c1cc2c(s1)C(=O)c1sccc1C2=O` [XI, 4,8-dioxo-4,8-dihydrobenzo-[1,2-b;5,4-b′]dithiophene-2-carboxylic acid], the IC50 in data set [1] (72 h) turned out to be 38.3 µM; in the data set on lung carcinoma (A-549) it was 30.3 µM; in data set [3], 37.2 µM; in data set [2] (Homo sapiens, KBVIN, 72 h), 38.3 µM; in the data set on prostate cancer (PC-3), 13.4 µM.

With `O=C([O][Na+])c1cc2c(s1)C(=O)c1sccc1C2=O` [XI-Na, Sodium 4,8-dioxo-4,8-dihydrobenzo-[1,2-b:5,4-b′]dithiophene-2 carboxylate], the solubility in “Water solubility” is no less than 10000 µg/mL.

`C[C@H](NC(=O)c1cc2c(s1)C(=O)c1sccc1C2=O)C(=O)[O-].[Na+]` [XIII-Na, Sodium (L)-2-{(4,8-dioxo-4,8-dihydrobenzo-[1,2-b;5,4-b′]dithiophene-2-carbonyl)-amino}-propionate]: the solubility in “Water solubility” was no less than 6600 µg/mL.

In the case of `O=C(O)c1cc2c(s1)C(=O)c1ccsc1C2=O` [XIV, 4,8-dioxo-4,8-dihydrobenzo-[1,2-b;4,5-b′]dithiophene-2-carboxylic acid], the IC50 came out at 38.3 µM in data set [1] (72 h); 44.4 µM in the data set on lung carcinoma (A-549); 44.1 µM in data set [3]; 38.3 µM in data set [2] (Homo sapiens, KBVIN, 72 h); 25.3 µM in the data set on prostate cancer (PC-3) (72 h).

Molecule `CN(C)CCNC(=O)c1cc2c(s1)C(=O)c1sccc1C2=O` [XVII-H3PO4, 4,8dioxo-4,8-dihydrobenzo[1,2-b;5,4-b′]dithiophene-2-carboxylate-(2-dimethyl-aminoethyl)-amide phosphoric acid salt] registered a solubility in the data set “Water solubility” of no less than 2000 µg/mL.

A word on the IC50: it is the midpoint of a concentration-inhibition curve. A word on the solubility: it is the dissolved amount per volume that the medium holds. A lower solubility goes with a poorly soluble substance.
